Reference: patent publication EP4793271A1, “NEUROPROTECTIVE AGENT” (National Center of Neurology and Psychiatry, priority 2023, dated 2025)

Assays:
hSARM1 [1] = target: T1, hSARM1 (Homo sapiens, UniProt Q6SZW1); assay: SARM1 inhibitory activity using recombinant SARM1 (PC6 base exchange fluorescence); type: biochemical; design: purchased BPS Bioscience; conditions: recombinant human SARM1 2 ng/µL; NMN 10 µM; NAD 1 mM; PC6 50 µM; result in words
T1 sequence (Q6SZW1 28-724): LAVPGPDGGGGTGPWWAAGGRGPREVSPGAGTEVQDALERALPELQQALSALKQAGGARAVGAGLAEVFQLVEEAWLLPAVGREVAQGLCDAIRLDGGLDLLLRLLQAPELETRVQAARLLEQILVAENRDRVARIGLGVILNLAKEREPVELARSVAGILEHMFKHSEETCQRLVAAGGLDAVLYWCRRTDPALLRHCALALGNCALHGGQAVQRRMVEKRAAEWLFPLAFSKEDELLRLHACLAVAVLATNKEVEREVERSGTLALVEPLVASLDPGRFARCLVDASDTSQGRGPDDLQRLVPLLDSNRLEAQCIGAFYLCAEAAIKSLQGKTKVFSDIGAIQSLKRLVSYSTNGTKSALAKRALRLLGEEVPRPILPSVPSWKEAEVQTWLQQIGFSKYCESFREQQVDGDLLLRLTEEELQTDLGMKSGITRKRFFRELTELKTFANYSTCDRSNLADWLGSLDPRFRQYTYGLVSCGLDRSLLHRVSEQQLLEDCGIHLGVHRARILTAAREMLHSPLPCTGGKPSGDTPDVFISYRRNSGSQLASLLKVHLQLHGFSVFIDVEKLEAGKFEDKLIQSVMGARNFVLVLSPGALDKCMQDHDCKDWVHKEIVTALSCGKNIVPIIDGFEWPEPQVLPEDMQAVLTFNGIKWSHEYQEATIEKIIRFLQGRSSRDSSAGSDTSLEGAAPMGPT
Experimental: The SARM1 inhibitory activity was evaluated by the following method using recombinant SARM1 from BPS Bioscience.
NMN, an endogenous activator for SARM1, was added at a final concentration of 10 µM to a reaction solution (composition: 40 mM HEPES-KOH (pH 7.4), 0.1% polyvinyl alcohol, and 110 mM potassium acetate) using a 96-well black plate. Subsequently, serial dilutions of the test compound and recombinant human SARM1 (final concentration: 2 ng/µL) were added thereto and preincubated at room temperature for 5 to 10 minutes. NAD and PC6 were added as substrates at final concentrations of 1 mM and 50 µM, respectively, to each well and incubated at room temperature for 1 hour, followed by fluorescent signal measurement using SpectraMax M2 (Molecular Devices) (excitation: 390 nm, fluorescence: 520 nm, fluorescence cutoff: 515 nm) (Li et al, eLife 2021 10: e67381). The fluorescent signal was normalized by using fluorescence intensity measured from a control group without addition of recombinant human SARM1 as a background whereas using fluorescence intensity measured from a control group supplemented with recombinant human SARM1 as the negative control, and plotted as the function of the test compound concentrations, and the compound was evaluated for its SARM1 inhibitory activity by calculating IC50.

[2] = test system: primary cultured cells of mouse fetus-derived dorsal root ganglia (DRGs); assay: Suppression of axonal degeneration after axotomy in DRG explant culture; type: cell-based; conditions: minimum concentration at which axonal degeneration was suppressed (DI 0.3 or less), 24 hours after axotomy; for minimal effective concentration: Mus musculus, read-out: Evaluation on protection against degeneration
How it was run: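 Embryonic ICR mouse DRG explants were cultured 7–8 days in nicotinamide-free neuronal medium with NGF, then axotomized by removing the cell bodies. Compound (100 pM–10 µM final, 0.1% DMSO) was added within 30 min, and neurites were imaged 24 h later. The result is the lowest concentration giving degeneration index ≤0.3.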

[3] = target: T2, nicotinamide phosphoribosyl transferase (NAMPT) (Homo sapiens, UniProt P43490); assay: NAMPT activity measurement (NMN fluorescence detection); type: biochemical; conditions: NAMPT recombinant protein, 10 µM Nam; for IC50: read-out: Evaluation on NAMPT inhibitory
T2 construct: purchased Medical & Biological Laboratories Co., Ltd. (MBL)
How it was run: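 Recombinant NAMPT reacted with 10 µM Nam, 0.5 µM PRPP, 2 µM ATP in Tris pH 7.4 buffer with MgCl2, DTT, BSA; product NMN quantified by fluorescence (ex 421/em 480 nm) after derivatization with 2-acetylbenzofuran. Compounds at 3 nM–10 µM; control-normalized signal used for IC50.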

hSARM1 [4] = target: T1, hSARM1; assay: Human SARM1 activity measurement in HEK293 cells transiently transfected with ΔN-hSARM1 (PC6 fluorescent probe); type: cell-based; design: expressed in transfected cells; host or cells: HEK293, pcDNA3 expression vector; conditions: inhibition rate; compound 30 µM; PC6 50 µM; HEK293 cells expressing ΔN-hSARM1; approximately 48 hours from transfection; read-out: Evaluation on hSARM1 inhibitory
How it was run: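 HEK293 cells in nicotinamide-free DMEM with 5 μM nicotinamide, transiently transfected with mitochondrial-targeting-deleted ΔN-hSARM1; PC6 base-exchange fluorescent probe (50 μM) plus compound (30 μM) added ~8 h post-transfection. Fluorescence (ex 405/em 525 nm) read ~48 h from transfection; inhibition % versus transfected DMSO control, untransfected background subtracted.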

T2 sequence (P43490 whole entry, species assumed): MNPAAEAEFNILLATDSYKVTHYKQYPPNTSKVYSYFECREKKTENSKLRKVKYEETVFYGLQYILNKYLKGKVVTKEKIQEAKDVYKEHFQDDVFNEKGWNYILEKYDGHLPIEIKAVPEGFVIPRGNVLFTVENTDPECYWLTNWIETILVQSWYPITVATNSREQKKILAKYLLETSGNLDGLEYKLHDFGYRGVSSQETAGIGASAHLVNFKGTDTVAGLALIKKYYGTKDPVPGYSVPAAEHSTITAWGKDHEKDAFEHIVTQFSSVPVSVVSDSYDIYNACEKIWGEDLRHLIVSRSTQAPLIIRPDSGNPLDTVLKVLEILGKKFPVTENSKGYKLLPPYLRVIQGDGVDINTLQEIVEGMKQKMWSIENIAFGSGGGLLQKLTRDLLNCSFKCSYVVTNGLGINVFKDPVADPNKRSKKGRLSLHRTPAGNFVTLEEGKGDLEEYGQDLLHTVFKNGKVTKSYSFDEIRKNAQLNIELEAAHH

Evaluation on NAMPT inhibitory [3] | inhibition at 30 µM (hSARM1 [4]) [%] | IC50 [3] [nM] | Structure (SMILES) | SARM1 inhibitory activity (hSARM1 [1]) | minimal effective concentration [2] [µM] | Evaluation on protection against degeneration [2]
 |  |  | Nc1ncnc2c1ncn2[C@@H]1O[C@H](COP(=O)([O-])OP(=O)(O)OC[C@H]2O[C@@H]([n+]3cccc(C(=O)NCCCOCCOCCCNC(=O)c4cccnc4)c3)[C@H](O)[C@@H]2O)[C@@H](O)[C@H]1O [compound 35-NAD-like metabolite] | stronger activity than that of compound 35 |  | 
 |  |  | Nc1ncnc2c1ncn2[C@@H]1O[C@H](COP(=O)([O-])OP(=O)(O)OC[C@H]2O[C@@H]([n+]3cccc(C(=O)NCc4ccc(NC(=O)c5ccccc5)nc4)c3)[C@H](O)[C@@H]2O)[C@@H](O)[C@H]1O [compound 105-NAD-like metabolite] | exhibited stronger activity in this order |  | 
○ | > 75 |  | O=C(NCc1ccc(NC(=O)C2CCC2)cc1)c1cccnc1 [compound 109] |  | ≤ 0.01 | 
○ | > 75 |  | O=C(CCc1ccccc1)NCc1ccc(CNC(=O)c2cccnc2)cc1 [compound 65] |  | ≤ 0.01 | 
 | > 75 | ≥ 100 | O=C(/C=C/c1cccnc1)NCCOCCOc1ccccc1 [compound 17] |  | ≤ 0.01 | 
○ | > 75 |  | O=C(NCc1ccc(NC(=O)c2ccc(F)c(F)c2)nc1)c1cccnc1 [Compound 137] |  | ≤ 0.01 | 
○ | > 50 |  | CCC(C)(C)C(=O)Nc1ccc(CNC(=O)c2cccnc2)cn1 [compound 88] |  | 0.01 to 0.1 | 
○ | > 25 |  | O=C(NCc1ccc(NC(=O)c2ccc(F)cc2F)nc1)c1cccnc1 [Compound 139] |  | ≤ 0.01 | 
○ | > 10 |  | CCC(C)C(=O)Nc1ccc(CNC(=O)c2cccnc2)cn1 (centres unmarked) [Compound 161] |  | ≤ 0.01 | 
○ | > 25 |  | O=C(NCCCOCCOCCCNC(=O)c1cccnc1)c1ccccc1 [Compound 186] |  | 0.01 to 0.1 | 
 | > 75 | ≥ 100 | O=C(NCc1ccc(NC(=O)c2cnc3ccccc3c2)nc1)c1cccnc1 [Compound 126] |  | ≤ 0.01 | 
○ | > 75 |  | N#Cc1ccc(/C=C/C(=O)Nc2ccc(CNC(=O)c3cccnc3)cn2)cc1 [Compound 166] |  | ≤ 0.01 | 
○ | > 50 |  | CCCCC(=O)Nc1ccc(CNC(=O)c2cccnc2)cn1 [Compound 159] |  | ≤ 0.01 | 
○ | > 10 |  | O=C(NCCCCC1NC(=O)C(CCCCNC(=O)c2cccnc2)NC1=O)c1cccnc1 (centres unmarked) [compound 104] |  | 0.1 to 1 | 
○ | > 50 |  | N#Cc1ccc(C(=O)Nc2ccc(CNC(=O)c3cccnc3)cn2)cc1 [compound 73] |  | ≤ 0.01 | 
○ | > 25 |  | O=C(NCCCOCCOCCCNC(=O)c1ccc2ccccc2c1)c1cccnc1 [Compound 187] |  |  | C (0.1 µM < C ≤ 1 µM)
○ | > 75 |  | CCC(C)CC(=O)Nc1ccc(CNC(=O)c2cccnc2)cn1 (centres unmarked) [Compound 165] |  | ≤ 0.01 | 

Evaluation on NAMPT inhibitory [3] | inhibition at 30 µM (hSARM1 [4]) [%] | IC50 [3] [nM] | Structure (SMILES) | SARM1 inhibitory activity (hSARM1 [1]) | minimal effective concentration [2] [µM] | Evaluation on protection against degeneration [2]
○ | > 75 |  | O=C(/C=C/c1ccccc1)Nc1ccc(CNC(=O)c2cccnc2)cn1 [compound 74] |  | 0.01 to 0.1 | 
○ | > 25 |  | CC(C)CC(=O)Nc1ccc(CNC(=O)c2cccnc2)cn1 [Compound 162] |  | ≤ 0.01 | 
○ | > 10 |  | CC(C)C(=O)N(C(=O)C(C)C)c1ccc(CNC(=O)c2cccnc2)cn1 [Compound 172] |  | ≤ 0.01 | 
○ | > 50 |  | O=C(/C=C/c1ccc(OC(F)(F)F)cc1)Nc1ccc(CNC(=O)c2cccnc2)cn1 [Compound 168] |  | ≤ 0.01 | 
 | > 75 | ≥ 100 | O=C(NCc1ccc(NC(=O)c2ccc3ccccc3c2)nc1)c1cccnc1 [Compound 127] |  | ≤ 0.01 | 
 | > 75 | ≥ 100 | C#CCOc1cncc(C(=O)Nc2ccc(CNC(=O)c3cccnc3)cc2)c1 [compound 67] |  | ≤ 0.01 | 
○ | > 25 |  | O=C(NCc1cccc(CNC(=O)c2cccnc2)n1)c1cccnc1 [Compound 150] |  | 0.1 to 1 | 
○ | > 25 |  | O=C(NCc1ccc(NC(=O)c2cccnc2)nc1)c1cccnc1 [Compound 120] |  | ≤ 0.01 | 
 | > 50 | ≥ 100 | O=C(NCCCCCCCCOCCOCCOCCO)c1cccnc1 [compound 8] |  | ≤ 0.01 | 
○ | > 75 |  | O=C(NCc1ccc(NC(=O)c2ccc3ncccc3c2)nc1)c1cccnc1 [Compound 122] |  | ≤ 0.01 | 
 | > 75 | ≥ 100 | CC(=O)NCc1ccc(OCCOCCNC(=O)/C=C/c2cccnc2)cc1 [compound 22] |  | ≤ 0.01 | 
○ | > 25 |  | O=C(NCCCOCCOCCCNC(=O)c1ccc2ncccc2c1)c1cccnc1 [Compound 188] |  | ≤ 0.01 | 
○ | > 75 |  | O=C(NCc1ccc(NC(=O)c2ccccc2OC(F)(F)F)nc1)c1cccnc1 [compound 85] |  |  | B (0.01 µM < B ≤ 0.1 µM)
 | > 75 | ≥ 100 | O=C(NCCCCCCCCOCCOCCO)c1cccnc1 [compound 6] |  | ≤ 0.01 | 
○ | > 75 |  | Cc1ccc(/C=C/C(=O)Nc2ccc(CNC(=O)c3cccnc3)cn2)cc1 [Compound 179] |  | ≤ 0.01 | 
○ | > 75 |  | O=C(NCc1ccc(NC(=O)c2ccccc2F)nc1)c1cccnc1 [Compound 133] |  | ≤ 0.01 | 

Structure (SMILES) | Evaluation on NAMPT inhibitory [3] | inhibition at 30 µM (hSARM1 [4]) [%] | IC50 [3] [nM] | SARM1 inhibitory activity (hSARM1 [1]) | minimal effective concentration [2] [µM] | Evaluation on protection against degeneration [2]
NCCOCCOCCCCCCCCNC(=O)c1cccnc1 [compound 97] |  | > 75 | ≥ 100 |  | ≤ 0.01 | 
